Patent US10995359B2, “Method for determining drug-sensitive human cell lines by analysis method in which measurement of activity of two types of protein kinase is used” (NITTO BOSEKI CO., LTD., priority 2015, dated 2021)

Experiments:
Assay in all cases: Drug sensitivity assay (cell growth test), sulforhodamine B
Assay type in all cases: cell-based
HCC1395 (LAR) cells = conditions: Homo sapiens, 72 hours, read-out: inhibition rate (%) by wortmannin, classification by grid analysis
Method: (§1) Cultured cells were treated with a MEK inhibitor and a PI3K inhibitor in various concentrations, and cell lines sensitive to MEK and PI3K were classified by calculating a cell growth inhibition rate. The culture method and analysis method are as follows.
(§2) Thirteen types of cells used in the present study, HCC38 (BL1), MDA-MB-231 (MSL), DU4475 (IM), HCC1187 (IM), HCC1143 (BL1), HCC1395 (LAR), HCC1937 (BL1), MDA-MB-453 (LAR), HCC70 (BL2), HS578T (MSL), MDA-MB-157 (MSL) and MDA-MB-468 (BL1), were obtained from American type culture collection (ATCC), and SUM185PE (LAR) was obtained from ASTERAND BIOSCIENCE. All the cells belong to triple negative breast cancer (TNBC), and it is known which of six types (BL1, BL2, M, MSL, IM and LAR) these belong to by an existing classification method.
(§3) All the cells were cultured in a medium designated from a source of supply, and 2 mM L-glutamine and 10% fetal bovine serum (FBS) were supplemented.
(§4) Each type of cells was seeded in a 96 well titer plate at 1×10^4 cells/well, and trametinib, an MEK inhibitor (Medchem Express; 0.08, 0.16, 0.31, 0.63, 1.25, 2.5, 5, 10 and 20 μM), and wortmannin, a PI3K inhibitor (Wako Pure Chemical Industries, Ltd.; 0.08, 0.16, 0.31, 0.63, 1.25, 2.5, 5, 10 and 20 μM) were dissolved in Dimethyl Sulfoxide [DMSO] (Wako Pure Chemical Industries, Ltd.) in various concentrations and treated. In addition, the effect on cell growth was examined at 72 hours after the inhibitor by sulforhodamine B assay (manufactured by SIGMA-ALDRICH), and 50 μL of sulforhodamine B solution was added to each well and cells were left at room temperature for an hour for staining. The staining degree of metabolically survival cells was examined by monitoring absorbance at a wavelength of 565 nm using a microtiter plate. The absorbance of cells which were not treated with trametinib and wortmannin (treated with DMSO) was used as a control and defined as 100% to calculate a cell growth inhibition rate.
(§5) The cell lines were classified into 4 types, cell lines sensitive to wortmannin (hereinafter, PA), cell lines sensitive to trametinib (hereinafter, MA), cell lines resistant to wortmannin and trametinib (hereinafter, R), and others (hereinafter, S). In the classification, first the inhibition rate of each drug was calculated in a concentration of 1 μM, and the inhibition rate (%) by trametinib and the inhibition rate (%) by wortmannin were plotted on the X axis and Y axis respectively on a graph.
as §5, with “100 nM,” for “1 μM,”
as §5, with “10” for “1”, “graph. Using a 50% growth inhibition rate as an index of the inhibitive effect of a drug, cells were classified into 4 types by grid analysis.” for “graph.”

HCC1937 (BL1) cells = conditions: Homo sapiens, 72 hours, read-out: inhibition rate (%) by wortmannin, classification by grid analysis
Method: as §1, §2, §3, §4, §5
as §5, with “100 nM,” for “1 μM,”
as §5, with “10” for “1”, “graph. Using a 50% growth inhibition rate as an index of the inhibitive effect of a drug, cells were classified into 4 types by grid analysis.” for “graph.”

HCC38 (BL1) cells = conditions: Homo sapiens, 72 hours, read-out: inhibition rate (%) by wortmannin, classification by grid analysis
Method: as §1, §2, §3, §4, §5
as §5, with “100 nM,” for “1 μM,”
as §5, with “10” for “1”, “graph. Using a 50% growth inhibition rate as an index of the inhibitive effect of a drug, cells were classified into 4 types by grid analysis.” for “graph.”

HCC70 (BL2) cells = conditions: Homo sapiens, 72 hours, read-out: inhibition rate (%) by wortmannin, classification by grid analysis
Method: as §1, §2, §3, §4, §5
as §5, with “100 nM,” for “1 μM,”
as §5, with “10” for “1”, “graph. Using a 50% growth inhibition rate as an index of the inhibitive effect of a drug, cells were classified into 4 types by grid analysis.” for “graph.”

HS578T (MSL) cells = conditions: Homo sapiens, Hs-578T, 72 hours, read-out: inhibition rate (%) by wortmannin, classification by grid analysis
Method: as §1, §2, §3, §4, §5
as §5, with “100 nM,” for “1 μM,”
as §5, with “10” for “1”, “graph. Using a 50% growth inhibition rate as an index of the inhibitive effect of a drug, cells were classified into 4 types by grid analysis.” for “graph.”

MDA-MB-157 (MSL) cells = conditions: Homo sapiens, 72 hours, read-out: inhibition rate (%) by wortmannin, classification by grid analysis
Method: as §1, §2, §3, §4, §5
as §5, with “100 nM,” for “1 μM,”
as §5, with “10” for “1”, “graph. Using a 50% growth inhibition rate as an index of the inhibitive effect of a drug, cells were classified into 4 types by grid analysis.” for “graph.”

MDA-MB-231 (MSL) cells = conditions: Homo sapiens, 72 hours, read-out: inhibition rate (%) by wortmannin, classification by grid analysis
Method: as §1, §2, §3, §4, §5
as §5, with “100 nM,” for “1 μM,”
as §5, with “10” for “1”, “graph. Using a 50% growth inhibition rate as an index of the inhibitive effect of a drug, cells were classified into 4 types by grid analysis.” for “graph.”

MDA-MB-468 (BL1) cells = conditions: Homo sapiens, 72 hours, read-out: inhibition rate (%) by wortmannin, classification by grid analysis
Method: as §1, §2, §3, §4, §5
as §5, with “100 nM,” for “1 μM,”
as §5, with “10” for “1”, “graph. Using a 50% growth inhibition rate as an index of the inhibitive effect of a drug, cells were classified into 4 types by grid analysis.” for “graph.”

SUM185PE (LAR) cells = conditions: Homo sapiens, 72 hours, read-out: inhibition rate (%) by wortmannin, classification by grid analysis
Method: as §1, §2, §3, §4, §5
as §5, with “100 nM,” for “1 μM,”
as §5, with “10” for “1”, “graph. Using a 50% growth inhibition rate as an index of the inhibitive effect of a drug, cells were classified into 4 types by grid analysis.” for “graph.”

[1] = 100 nM, index 12.5% growth inhibition rate
[2] = 1 μM, index 25% growth inhibition rate
[3] = 10 μM, index 50% growth inhibition rate

COC[C@H]1OC(=O)c2coc3c2[C@@]1(C)C1=C(C3=O)[C@@H]2CCC(=O)[C@@]2(C)C[C@H]1OC(C)=O [wortmannin, Wortmannin]
inhibition at 0.1 µM (HCC1395 (LAR) cells; HCC1395, 100 nM, index 12.5% growth inhibition rate): < 12.5%
inhibition at 1 µM (HCC1395 (LAR) cells; HCC1395, 1 μM, index 25% growth inhibition rate): < 25%
inhibition at 10 µM (HCC1395 (LAR) cells; HCC1395, 10 μM, index 50% growth inhibition rate): < 50%
inhibition at 0.1 µM (HCC1937 (BL1) cells; HCC1937, 100 nM, index 12.5% growth inhibition rate): < 12.5%
inhibition at 1 µM (HCC1937 (BL1) cells; HCC1937, 1 μM, index 25% growth inhibition rate): < 25%
inhibition at 10 µM (HCC1937 (BL1) cells; HCC1937, 10 μM, index 50% growth inhibition rate): < 50%
inhibition at 0.1 µM (HCC38 (BL1) cells; HCC38, 100 nM, index 12.5% growth inhibition rate): < 12.5%
inhibition at 1 µM (HCC38 (BL1) cells; HCC38, 1 μM, index 25% growth inhibition rate): < 25%
inhibition at 10 µM (HCC38 (BL1) cells; HCC38, 10 μM, index 50% growth inhibition rate): < 50%
inhibition at 0.1 µM (HCC70 (BL2) cells; HCC70, 100 nM, index 12.5% growth inhibition rate): > 12.5%
inhibition at 1 µM (HCC70 (BL2) cells; HCC70, 1 μM, index 25% growth inhibition rate): > 25%
inhibition at 10 µM (HCC70 (BL2) cells; HCC70, 10 μM, index 50% growth inhibition rate): > 50%
inhibition at 0.1 µM (HS578T (MSL) cells; [1]): < 12.5%
inhibition at 1 µM (HS578T (MSL) cells; [2]): < 25%
inhibition at 10 µM (HS578T (MSL) cells; [3]): < 50%
inhibition at 0.1 µM (MDA-MB-157 (MSL) cells; MDA-MB-157, 100 nM, index 12.5% growth inhibition rate): < 12.5%
inhibition at 1 µM (MDA-MB-157 (MSL) cells; MDA-MB-157, 1 μM, index 25% growth inhibition rate): < 25%
inhibition at 10 µM (MDA-MB-157 (MSL) cells; MDA-MB-157, 10 μM, index 50% growth inhibition rate): < 50%
inhibition at 0.1 µM (MDA-MB-231 (MSL) cells; MDA-MB-231, 100 nM, index 12.5% growth inhibition rate): < 12.5%
inhibition at 1 µM (MDA-MB-231 (MSL) cells; MDA-MB-231, 1 μM, index 25% growth inhibition rate): < 25%
inhibition at 10 µM (MDA-MB-231 (MSL) cells; MDA-MB-231, 10 μM, index 50% growth inhibition rate): < 50%
inhibition at 0.1 µM (MDA-MB-468 (BL1) cells; MDA-MB-468, 100 nM, index 12.5% growth inhibition rate): > 12.5%
inhibition at 1 µM (MDA-MB-468 (BL1) cells; MDA-MB-468, 1 μM, index 25% growth inhibition rate): > 25%
inhibition at 10 µM (MDA-MB-468 (BL1) cells; MDA-MB-468, 10 μM, index 50% growth inhibition rate): > 50%
inhibition at 0.1 µM (SUM185PE (LAR) cells; [1]): > 12.5%
inhibition at 1 µM (SUM185PE (LAR) cells; [2]): > 25%
inhibition at 10 µM (SUM185PE (LAR) cells; [3]): > 50%
